In patent US20230123334A1, “AMINO LIPID COMPOUND, PREPARATION METHOD THEREFOR, AND APPLICATION THEREOF” (SHENZHEN SHENXIN BIOTECHNOLOGY CO., LTD., priority 2020, published 2023):

Test system: HEK293 cells
Assay: Preliminary screening as mRNA vectors, EGFP mRNA transfection of HEK293 cells
Type: cell-based
Conditions: EGFP mRNA 50 ng per well, 96-well plates; percentage of GFP fluorescent cells relative to total number of cells (Hoechst)
Method in brief: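 HEK293 cells in DMEM plus 10% FBS transfected in 96-well format with 50 ng EGFP mRNA per well; Lipofectamine2000 served as positive control. Read-out is the percentage of GFP-fluorescent cells among total cells, counted by Hoechst nuclear stain.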

Compound | Absolute mRNA transfection efficiency in HEK293 cells [%]
CCCCCCCCCCCCCCCCCCSc1nc(NCCCCCCCCCCCCC)nc(NCCN2CCCC2)n1 [Compound D3S18N13] | 1.0
CCCCCCCCCCCCCCCCCCSc1nc(NCCCCCCCCCCCCCCC)nc(NCCN2CCCC2)n1 [Compound D3S18N15] | 0.1
CCCCCCCCCCCCCCCCCCSc1nc(NCCCCCCCCCCCCCCCC)nc(NCCN2CCCC2)n1 [Compound D3S18N16] | 0.5
CCCCCCCCCCCCCCCCCCNc1nc(NCCN2CCCC2)nc(SCCCCCCCCCCCCCCCCCC)n1 [Compound D3S18N18] | 0.1
CCCCCCNc1nc(NCCN2CCCCC2)nc(SCCCCCC)n1 [Compound D4S6N6] | 0.3
CCCCCCCNc1nc(NCCN2CCCCC2)nc(SCCCCCC)n1 [Compound D4S6N7] | 0.0
CCCCCCCCNc1nc(NCCN2CCCCC2)nc(SCCCCCC)n1 [Compound D4S6N8] | 0.3
CCCCCCCCCNc1nc(NCCN2CCCCC2)nc(SCCCCCC)n1 [Compound D4S6N9] | 1.1
CCCCCCCCCCCNc1nc(NCCN2CCCCC2)nc(SCCCCCC)n1 [Compound D4S6N11] | 0.9
CCCCCCCCCCCCNc1nc(NCCN2CCCCC2)nc(SCCCCCC)n1 [Compound D4S6N12] | 0.7
CCCCCCCCCCCCCNc1nc(NCCN2CCCCC2)nc(SCCCCCC)n1 [Compound D4S6N13] | 2.1
CCCCCCCCCCCCCCCNc1nc(NCCN2CCCCC2)nc(SCCCCCC)n1 [Compound D4S6N15] | 0.4
CCCCCCCCCCCCCCCCNc1nc(NCCN2CCCCC2)nc(SCCCCCC)n1 [Compound D4S6N16] | 0.5
CCCCCCCCCCCCCCCCCCNc1nc(NCCN2CCCCC2)nc(SCCCCCC)n1 [Compound D4S6N18] | 1.8
CCCCCCSc1nc(NCCN2CCCCC2)nc(SCCCCCC)n1 [Compound D4S6S6] | 0.9
CCCCCCCSc1nc(NCCN2CCCCC2)nc(SCCCCCC)n1 [Compound D4S6S7] | 1.2
CCCCCCCCSc1nc(NCCN2CCCCC2)nc(SCCCCCC)n1 [Compound D4S6S8] | 0.5
CCCCCCCCCSc1nc(NCCN2CCCCC2)nc(SCCCCCC)n1 [Compound D4S6S9] | 0.7
CCCCCCCCCCSc1nc(NCCN2CCCCC2)nc(SCCCCCC)n1 [Compound D4S6S10] | 0.3
CCCCCCCCCCCCSc1nc(NCCN2CCCCC2)nc(SCCCCCC)n1 [Compound D4S6S12] | 0.2
CCCCCCCCCCCCCCSc1nc(NCCN2CCCCC2)nc(SCCCCCC)n1 [Compound D4S6S14] | 5.3
CCCCCCCCCCCCCCCSc1nc(NCCN2CCCCC2)nc(SCCCCCC)n1 [Compound D4S6S15] | 2.0
CCCCCCCCCCCCCCCCSc1nc(NCCN2CCCCC2)nc(SCCCCCC)n1 [Compound D4S6S16] | 5.1
CCCCCCCCCCCCCCCCCCSc1nc(NCCN2CCCCC2)nc(SCCCCCC)n1 [Compound D4S6S18] | 8.8
CCCCCCCSc1nc(NCCCCCC)nc(NCCN2CCCCC2)n1 [Compound D4S7N6] | 4.5
CCCCCCCNc1nc(NCCN2CCCCC2)nc(SCCCCCCC)n1 [Compound D4S7N7] | 3.4

Compound | Absolute mRNA transfection efficiency in HEK293 cells [%]
CCCCCCCCNc1nc(NCCN2CCCCC2)nc(SCCCCCCC)n1 [Compound D4S7N8] | 0.5
CCCCCCCCCNc1nc(NCCN2CCCCC2)nc(SCCCCCCC)n1 [Compound D4S7N9] | 4.9
CCCCCCCCCCCNc1nc(NCCN2CCCCC2)nc(SCCCCCCC)n1 [Compound D4S7N11] | 1.0
CCCCCCCCCCCCNc1nc(NCCN2CCCCC2)nc(SCCCCCCC)n1 [Compound D4S7N12] | 0.6
CCCCCCCCCCCCCNc1nc(NCCN2CCCCC2)nc(SCCCCCCC)n1 [Compound D4S7N13] | 0.7
CCCCCCCCCCCCCCCNc1nc(NCCN2CCCCC2)nc(SCCCCCCC)n1 [Compound D4S7N15] | 2.6
CCCCCCCCCCCCCCCCNc1nc(NCCN2CCCCC2)nc(SCCCCCCC)n1 [Compound D4S7N16] | 1.3
CCCCCCCCCCCCCCCCCCNc1nc(NCCN2CCCCC2)nc(SCCCCCCC)n1 [Compound D4S7N18] | 7.9
CCCCCCCSc1nc(NCCN2CCCCC2)nc(SCCCCCCC)n1 [Compound D4S7S7] | 13.5
CCCCCCCCSc1nc(NCCN2CCCCC2)nc(SCCCCCCC)n1 [Compound D4S7S8] | 5.9
CCCCCCCCCSc1nc(NCCN2CCCCC2)nc(SCCCCCCC)n1 [Compound D4S7S9] | 3.7
CCCCCCCCCCSc1nc(NCCN2CCCCC2)nc(SCCCCCCC)n1 [Compound D4S7S10] | 2.7
CCCCCCCCCCCSc1nc(NCCN2CCCCC2)nc(SCCCCCCC)n1 [Compound D4S7S11] | 8.0
CCCCCCCCCCCCSc1nc(NCCN2CCCCC2)nc(SCCCCCCC)n1 [Compound D4S7S12] | 9.2
CCCCCCCCCCCCCCSc1nc(NCCN2CCCCC2)nc(SCCCCCCC)n1 [Compound D4S7S14] | 8.3
CCCCCCCCCCCCCCCSc1nc(NCCN2CCCCC2)nc(SCCCCCCC)n1 [Compound D4S7S15] | 6.7
CCCCCCCCCCCCCCCCSc1nc(NCCN2CCCCC2)nc(SCCCCCCC)n1 [Compound D4S7S16] | 8.8
CCCCCCCCCCCCCCCCCCSc1nc(NCCN2CCCCC2)nc(SCCCCCCC)n1 [Compound D4S7S18] | 4.5
CCCCCCCCSc1nc(NCCCCCC)nc(NCCN2CCCCC2)n1 [Compound D4S8N6] | 2.7
CCCCCCCCSc1nc(NCCCCCCC)nc(NCCN2CCCCC2)n1 [Compound D4S8N7] | 1.8
CCCCCCCCNc1nc(NCCN2CCCCC2)nc(SCCCCCCCC)n1 [Compound D4S8N8] | 0.6
CCCCCCCCCNc1nc(NCCN2CCCCC2)nc(SCCCCCCCC)n1 [Compound D4S8N9] | 2.3
CCCCCCCCCCCNc1nc(NCCN2CCCCC2)nc(SCCCCCCCC)n1 [Compound D4S8N11] | 0.3
CCCCCCCCCCCCNc1nc(NCCN2CCCCC2)nc(SCCCCCCCC)n1 [Compound D4S8N12] | 3.5
CCCCCCCCCCCCCNc1nc(NCCN2CCCCC2)nc(SCCCCCCCC)n1 [Compound D4S8N13] | 4.5
CCCCCCCCCCCCCCCNc1nc(NCCN2CCCCC2)nc(SCCCCCCCC)n1 [Compound D4S8N15] | 2.6
